Experimental data as given in PMC2939063, “In Vitro and In Vivo Studies of the Trypanocidal Properties of WRR-483 against Trypanosoma cruzi” (PLoS Neglected Tropical Diseases, 2010).

How the values were obtained:
[1] = target: T1, Rhodesain (Trypanosoma brucei rhodesiense, UniProt Q95PM0); assay: Rhodesain enzyme assay (acetate buffer pH 5.5, Z-Phe-Arg-AMC); format: biochemical, T. brucei
T1 construct: made in house
Protocol: Cruzain[27],[28], rhodesain [29], and tbcatB [30] were recombinantly expressed as described previously. TbcatB assays were performed as described previously.[31] Cruzain (2 nM) or rhodesain (3 nM) was incubated with 0.5 to 10 µM inhibitor concentration in 100 mM sodium acetate at pH 5.5, containing 5 mM DTT (buffer A) for 5 min at room temperature. Then buffer A containing Z-Phe-Arg-AMC (Bachem, K M = 1 µM) was added to enzyme inhibitor to give 20 µM substrate concentration in 200 µL, and the increase in fluorescence (excitation at 355 nm and emission at 460 nm) was followed with an automated microtiter plate spectrofluorometer (Molecular Devices, Flex station). Inhibitor stock solutions were prepared at 20 mM in DMSO, and serial dilutions were made in DMSO (0.7% DMSO in assay). Controls were performed using enzyme alone and enzyme with DMSO. IC50 values were determined graphically using inhibitor concentrations in the linear portion of a plot of inhibition versus log[I] (seven concentrations tested with at least two in the linear range).
Inhibitor dilutions which produce simple exponential progress curves over a wide range of k obs, were used to determine kinetic parameters. The value of k obs, the rate constant for loss of enzyme activity, was determined from an equation for pseudo first order dynamics using Prism 4.0 (GraphPad). When k obs varied linearly with inhibitor concentration, k ass was determined by linear regression analysis. If the variation was hyperbolic, indicating saturation inhibition kinetics, k inact and K i were determined from an equation describing a two-step irreversible inhibitor mechanism [k obs = k inact [I]o/([I]o+Ki* (1+[S]o/K M))] and non-linear regression analysis Prism 4.0.[32] All values were corrected for substrate concentration.

[2] = tested on: T. cruzi infected J774 macrophages; assay: T. cruzi growth inhibition in infected J774 macrophages (cell survival); format: cell-based, Trypanosoma cruzi CA-I/72; conditions: 10 µM inhibitor every 48 h until Day 27, experiment terminated on Day 47, untreated control 6 days
Protocol: CA-I/72 T. cruzi parasites were isolated from a chronic Chagasic patient, cloned, and maintained as previously described.[33]
For growth inhibition studies, J774 macrophages cultured in RPMI-1640 medium with 5% heat inactivated fetal calf serum (FCS) were irradiated (9000 rad) to arrest the cell cycle and plated onto 12-well tissue culture plates for 24 h at 37°C. After infection with 10^5 T. cruzi trypomastigotes per well for 2 hours, monolayers were washed with RPMI medium and treated with the inhibitors at 10 µM in RPMI medium (triplicate wells per inhibitor). Inhibitor stocks were made to 10 mM in DMSO and diluted prior to use. All assays include untreated, K11777-treated, and uninfected macrophage controls. Fresh medium with or without inhibitor was replaced every 48 h and inhibitor efficacy was monitored daily. Survival time was defined as the time before the cell monolayer was destroyed by the infection. Under these culture conditions, T. cruzi completed the intracellular cycle in 6 days in untreated controls. […] Macrophages were subsequently cultured in normal medium for up to 40 days to elucidate if the effective inhibitors were trypanocidal (cure host macrophages) or trypanostatic (delay intracellular cycle of the parasite).

[3] = target: T2, Cathepsin C (Homo sapiens, UniProt P53634); assay: Protease inhibition profiling (Reaction Biology Corp): Cathepsin C; format: biochemical
T2 construct: Reaction Biology Corp (screening service)

[4] = target: T3, Cathepsin L (Homo sapiens, UniProt P07711); assay: Protease inhibition profiling (Reaction Biology Corp): Cathepsin L; format: biochemical
T3 construct: Reaction Biology Corp (screening service)

[5] = target: T4, calpain-1 (Homo sapiens, UniProt P07384); assay: Protease inhibition profiling (Reaction Biology Corp): calpain-1; format: biochemical; conditions: panel of 70 proteases
T4 construct: Reaction Biology Corp (screening service)
T4 sequence (P07384 1-714): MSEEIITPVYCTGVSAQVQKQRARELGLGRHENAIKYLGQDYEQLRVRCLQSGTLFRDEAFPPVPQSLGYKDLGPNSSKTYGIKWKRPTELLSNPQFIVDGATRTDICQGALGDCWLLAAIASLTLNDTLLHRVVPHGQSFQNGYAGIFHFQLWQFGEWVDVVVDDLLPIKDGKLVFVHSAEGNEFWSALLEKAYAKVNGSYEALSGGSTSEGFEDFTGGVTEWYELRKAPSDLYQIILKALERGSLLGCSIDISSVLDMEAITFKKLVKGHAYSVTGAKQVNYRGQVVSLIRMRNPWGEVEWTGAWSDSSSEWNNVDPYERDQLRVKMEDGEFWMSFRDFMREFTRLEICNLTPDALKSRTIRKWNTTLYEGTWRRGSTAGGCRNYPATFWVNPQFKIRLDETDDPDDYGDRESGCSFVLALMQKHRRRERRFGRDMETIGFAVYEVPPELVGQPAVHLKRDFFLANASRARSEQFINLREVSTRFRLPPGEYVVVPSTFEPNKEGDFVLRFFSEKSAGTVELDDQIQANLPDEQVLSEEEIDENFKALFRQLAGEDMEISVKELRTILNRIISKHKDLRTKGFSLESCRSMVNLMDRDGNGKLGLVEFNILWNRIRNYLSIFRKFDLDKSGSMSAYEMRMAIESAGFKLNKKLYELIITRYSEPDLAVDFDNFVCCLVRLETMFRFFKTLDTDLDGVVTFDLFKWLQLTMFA
T4 sequence (P04632 1-268 partner): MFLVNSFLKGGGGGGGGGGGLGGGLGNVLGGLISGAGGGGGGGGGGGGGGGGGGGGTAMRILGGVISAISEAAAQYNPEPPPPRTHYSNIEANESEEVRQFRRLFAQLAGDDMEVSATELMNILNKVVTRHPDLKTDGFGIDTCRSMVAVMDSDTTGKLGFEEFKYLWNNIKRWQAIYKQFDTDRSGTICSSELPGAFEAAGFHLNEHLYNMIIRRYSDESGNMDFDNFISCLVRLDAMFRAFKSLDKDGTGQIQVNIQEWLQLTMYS

[6] = Pharmacokinetic study (SRI international); conditions: in vivo
Text: (§1) In this study, we have identified WRR-483, as an effective agent to treat acute Chagas' disease in a murine model. […] The crystal structure of WRR-483 complexed to cruzain was solved and established the binding mode of the inhibitor to the enzyme. This structure was highlighted by the formation of a salt bridge between the guanidine moiety of the inhibitor and Glu208, but in a different conformation when compared to another structure of cruzain bound to a different arginine-containing inhibitor. […] The no observed adverse effect level (NOAEL) is higher than 100 mg/kg. […] Further studies to understand the precise mechanism of trypanocidal action of WRR-483 and design of analogs with improved bioavailability are currently underway.

[7] = Toxicology study (SRI international); conditions: in vivo; read-out: no observed adverse effect level (NOAEL)
Text: as §1

T1 sequence (Q95PM0 entry or part of it): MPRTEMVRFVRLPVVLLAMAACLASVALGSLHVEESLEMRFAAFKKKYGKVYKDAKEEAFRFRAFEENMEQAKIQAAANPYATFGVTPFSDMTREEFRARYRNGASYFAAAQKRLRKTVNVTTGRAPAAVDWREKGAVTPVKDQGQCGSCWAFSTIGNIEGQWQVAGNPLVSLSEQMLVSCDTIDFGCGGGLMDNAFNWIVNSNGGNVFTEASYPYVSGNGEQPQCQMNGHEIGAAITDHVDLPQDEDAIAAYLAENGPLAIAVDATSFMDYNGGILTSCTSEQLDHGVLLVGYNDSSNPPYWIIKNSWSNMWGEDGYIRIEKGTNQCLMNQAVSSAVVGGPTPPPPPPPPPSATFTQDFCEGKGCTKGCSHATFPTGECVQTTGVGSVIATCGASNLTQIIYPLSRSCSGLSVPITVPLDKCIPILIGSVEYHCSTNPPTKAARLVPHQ
T2 sequence (P53634 25-463, species assumed): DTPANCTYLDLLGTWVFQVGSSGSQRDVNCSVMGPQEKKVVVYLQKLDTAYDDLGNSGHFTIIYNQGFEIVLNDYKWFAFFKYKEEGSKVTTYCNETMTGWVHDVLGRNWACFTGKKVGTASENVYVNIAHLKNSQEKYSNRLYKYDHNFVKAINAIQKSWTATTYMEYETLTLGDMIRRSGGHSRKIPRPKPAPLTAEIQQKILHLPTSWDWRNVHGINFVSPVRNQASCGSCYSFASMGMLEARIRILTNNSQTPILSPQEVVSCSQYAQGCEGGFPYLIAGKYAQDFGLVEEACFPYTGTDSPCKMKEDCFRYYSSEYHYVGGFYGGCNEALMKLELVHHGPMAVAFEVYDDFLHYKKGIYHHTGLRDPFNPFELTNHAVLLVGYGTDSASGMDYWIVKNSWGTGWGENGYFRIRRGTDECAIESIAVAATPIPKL
T3 sequence (P07711 114-333, species assumed): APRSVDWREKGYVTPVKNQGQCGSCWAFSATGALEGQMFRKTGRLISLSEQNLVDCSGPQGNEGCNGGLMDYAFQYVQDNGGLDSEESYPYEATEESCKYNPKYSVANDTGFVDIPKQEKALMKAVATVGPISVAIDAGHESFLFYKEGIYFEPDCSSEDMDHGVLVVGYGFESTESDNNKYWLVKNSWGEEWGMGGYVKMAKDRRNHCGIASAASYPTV

In the case of `CN1CCN(C(=O)N[C@@H](CCCNC(=N)N)C(=O)N[C@H](/C=C/S(=O)(=O)c2ccccc2)CCc2ccccc2)CC1` [WRR-483], the “k obs/[I] at 1 µM, Rhodesain” value ([1]; 100 mM sodium acetate pH 5.5, 5 mM DTT) is reported as “No inhibition”, the inhibition of rhodesain ([1]; even at 10 µM concentration) is reported as “no inhibition” and the “T. cruzi infected cell survival” value [2] is reported as 47 days. For the same compound, the IC50 [3] was 7 ± 0.9 nM, the IC50 [4] was 53 ± 4 nM and the “inhibition of calpain-1” value [5] was “no inhibition”. The Vd ([6]; 10 mg dose iv) was 15.1 L/kg, the clearance ([6]; 10 mg dose iv) was 27.5 mL/min/kg and the half-life ([6]; 10 mg dose iv) was 6.4 h. The bioavailability ([6]; oral, read-out: oral bioavailability %F) was under 1% and the NOAEL [7] was over 100 mg/kg.
